From patent US11291666B2, “Uses” (INTRA-CELLULAR THERAPIES, INC., priority 2016, dated 2022) come the findings set out here.

Assay [1] deals with BV2 cells. The assay can be described thus: RT-qPCR of selected genes in BV2 cells with ITI-214, cyclase activators and PKA/PKG inhibitors. It is filed as cell-based, mouse. To be noted: 10 μM forskolin, 5 μM DEANO or 100 nM ANP. As to the method:
In a further experiment a group of genes is selected for further analysis by RT-qPCR. For comparison, genes are analyzed which have been implicated in the scientific literature in microglial and astrocyte activation, including genes in the complement pathway.
All sample values are normalized to an average of 3 reference genes and to vehicle control (ΔΔCt). The error bars represent the mean+/−SEM (n=4). From left to right, for each cytokine grouping, the bars indicate samples treated with: LPS, 0.1 μM 214+LPS, 0.4 μM 214+LPS, 1.1 μM 214+LPS, 3.3 μM 214+LPS, 10 μM 214+LPS, for each particular gene shown on the X-axis. Significant changes between LPS and 10 μM ITI-214+LPS (A) and Vehicle and 10 μM ITI-214 (B) are marked on the X-axis gene names and are calculated using a one-way ANOVA. * p<0.05, **p<0.01, ***p<0.001, ****p<0.0001.
In one particular experiment, BV2 cells are treated with 10 μM forskolin (FSK) to activate adenylyl cyclases, 5 μM DEANO to activate soluble guanylyl cyclase, or 100 nM atrial natriuretic peptide (ANP) to activate particulate guanylyl cyclase. […] Upon combining forskolin with ITI-214 some of the effects of ITI-214 inhibition can be increased. […] However, LIF reverts to LPS-level expression when forskolin is added.
Note that gene expression levels upon addition of PKA or PKG inhibitor to 10 μM ITI-214 are on the order of those relative to LPS treatment alone were reduced to levels equivalent to 3.3 μM ITI-214.
Background: Quantitative PCR measures a nucleic acid by following its amplification.

Assay [2] has as its system HL60 cells. Nature of the assay: Total cGMP levels in PMA-differentiated HL60 cells with ANP and ionomycin (competitive ELISA). It is filed as cell-based, human. As for the experimental part: We have shown that there is a synergistic effect between ANP and PDE1 inhibition. An immortalized human pro-myeloid cell line (HL60 from ATCC) is grown, differentiated and harvested as described in Bender, A T, and Beavo, J A, 2006, PNAS 103, 460-465. The cells are grown in HEPES buffered RPMI 1640 medium with penicillin, streptomycin, and 10% fetal bovine serum. Phorbol-12-myristate-13-acetate (PMA), at 100 nM for 3 days, is used to differentiate the HL60 cells into macrophage-like cells. Following differentiation, the cells are incubated with a PDE1 inhibitor or vehicle (DMSO) beginning at time 0. At 40 minutes, 5 μM ionomycin (a calcium ionophore) is added. At 50 minutes, 100 nM ANP was added. At 60 minutes, the cells are harvested. Total cGMP levels are measured using a competitive ELISA (Bender and Beavo, 2006).
A general note: An ELISA detects its analyte on a solid surface through an enzyme-linked reagent.

Assay [3] deals with retinal ganglion cells. Nature of the assay: Optic nerve injury (optic crush) model. It is filed as in vivo, mouse. As to conditions: mice; intraocular injection after optic nerve injury; 14 days; FIG. 12. As for the experimental part: A PDE1 inhibitory compound is tested in an optic nerve injury model (i.e., the “optic crush” model). The studies described below are carried out using the selective PDE1 inhibitor IC200041, which has the following structure:
In this model, optic nerve surgeries are carried out on male mice 8 wk of age (average body weight, 20-26 g) under general anesthesia, as described previously (Yin Y, et al., Oncomodulin links inflammation to optic nerve regeneration. Proc Natl Acad Sci USA. 2009; 106:19587-19592). Following nerve injury, 3 μl of fluid is removed from the eye and a solution containing the PDE1 inhibitory compound is injected intraocularly.
A total of 4 mouse retinas are treated with the PDE1 inhibitor, and phosphate buffered saline (PBS) is administered to a total of 10 mouse retinas as a control. Mice are typically euthanized with an overdose of anesthesia 14 days after optic nerve injury and are perfused with saline and 4% paraformaldehyde (PFA). These mice are 10 weeks old when killed. Optic nerves and eyes are dissected and postfixed in PFA. […] Axons are counted manually in at least 8 longitudinal sections per case at pre-specified distances from the injury site, and these numbers were converted into the number of regenerating axons at various distances.

The subject of assay [4] is BV2 cells. The assay can be described thus: RNAseq analysis of LPS-stimulated BV2 cells, differentially expressed transcripts. It is filed as cell-based, mouse. As to conditions: for genes significantly affected by this compound but not the other (Compound 214 / Rolipram): LPS-stimulated BV2 cells. As to the method:
(§1) The test compound is added first, the LPS is added one hour later, and the cells and/or media are harvested at five hours from commencement of the experiment.
RNASeq: Flashfreeze BV2cells, isolate RNA, prepare a library using polyA selection, and conduct 1×50 bp single read sequencing on the Illumina HiSeq 2500 in High Output mode (using V4 chemistry). Genes are mapped to reference genome (GRCm38) using CLC Genomics Server. Number of reads per sample average ˜17 million. Differential gene expression analysis is performed using DESeq2software (Bioconductor.org). Differentially expressed genes (p<0.01, Waldtest) are reported as log 2(fold change).

The test system of assay [5] is BV2 cells. The assay can be described thus: Quantitative PCR of inflammatory cytokine mRNA in LPS-treated BV2 cells. It is filed as cell-based, mouse. As to the method: Levels of IL1β are measured using quantitative PCR of IL1β mRNA. IL1β is considered a marker of inflammation. Results are depicted in FIG. 2 (RQ: relative quantification of changes in gene expression in treated versus control samples; ***p<0.01 vs control, √p<0.01 vs LPS alone; ANOVA with Newman-Keuls post-hoc test).
BV2 cells are pretreated with compound, ITI-214 or rolipram, a PDE4 inhibitor, then stimulated with 50 ng/ml LPS for 4 hours. Expression levels of TNF, IL1β, Ccl2, and IL6 are measured. Normalized mRNA levels are shown as change from vehicle (ΔΔCt) and compared using a one-way ANOVA. […] The mRNA transcripts for TNF, IL1β, and Ccl2—three of the four cytokines studied in vivo—were elevated in BV2 cells treated with 50 ng/ml LPS.
as §1
(§2) RTqPCR: RNA from BV2 cells purified using RNeasyKit (Qiagen) and from mouse tissue using TRIzol (Ambion). TaqMan primer-probe assays from Thermo Fisher. mRNA levels for all conditions are normalized to GAPDH and to vehicle control (ΔΔCt). Data are analyzed statistically using one-way ANOVA with the Bonferroni post-test for multiple comparisons.

In assay [6] the test system is inflammatory gene expression in mouse striatum. Nature of the assay: Inflammatory gene expression in mouse striatum after LPS (Q-PCR). As to conditions: Striatum Mouse + LPS; initial results. It is filed as in vivo. As for the experimental part: as §2
The results are based upon an evaluation of samples using Q-PCR.
Data from a further experiment measuring the effect of PDE1 inhibition on inflammatory gene expression in mouse striatum is depicted in FIG. 7. […] Striatal tissue is isolated and flash frozen, and RNA is extracted. Measurements from RT-qPCR are shown as log 2 fold change (2ΔΔCt). n=4 *p<0.05, **p<0.01, ***p<0.001, ****p<0.0001.
Data from yet another experiment measuring the effect of PDE1 inhibition on inflammatory gene expression in mouse striatum is depicted in FIG. 8. […] Striatal tissue is analyzed for mRNA levels of TNF, IL1β, Ccl2, and IL6. Expression levels are shown as change in Q-PCR signal from vehicle (ΔΔCt) and compared using an ANOVA. * p<0.05, **p<0.01, ***p<0.001.

Where [7] appears, read: BV2 cells, Compound 214 at 10 μM, FIG. 4a.

As for `CCN(CC)/[N+]([O-])=N/[O-].[Na+]` [DEANO, reference compound], the “effect of the activator alone on LPS induction of the selected genes” value in assay [1] was “little or no effect”.
Take `CN1C(=O)c2c(nn(Cc3ccc(C(F)(F)F)cc3)c2Nc2ccccc2)N2C1=N[C@@H]1CCC[C@@H]12` [Example 20 of U.S. Pat. No. 8,273,750, (6aR,9aS)-3-(phenylamino)-5,6a,7,8,9,9a-hexahydro-5-methyl-2-(4-(trifluoromethyl)-benzyl)-cyclopent[4,5]imidazo[1,2-a]pyrazolo[4,3-e]pyrimidin-4(2H)-one]: the “cGMP level, ANP in combination with the PDE1 inhibitor versus either alone” value in assay [2] (100 nM ANP + 100 nM PDE1 inhibitor) is listed as “greater”. Moreover, the “decreasing cGMP signal caused by activation of PDE1 by ionomycin” value in assay [2] (PDE1 inhibitor + sub-optimal ANP, ionomycin 5 μM) is “synergistically prevented”. Besides, in assay [2] (SCH 51866 used at 5 μM), the “cGMP level, co-treatment with ANP and the PDE1 inhibitor versus ANP and SCH 51866” value is reported as “much greater”. The “effect of ionomycin on cGMP when combined with ANP and the PDE1 inhibitor” value in assay [2] (ionomycin 5 μM) is recorded as “only a weak cGMP lowering effect”.
As to `CN1C(=O)c2c(nn(Cc3ccc(-c4ccccn4)cc3)c2Nc2ccccc2)N2C1=N[C@@H]1CCC[C@@H]12` [IC200041], the “survival of retinal ganglion cells compared with the PBS control” value in assay [3] was “highly effective”.
With `CC[C@H](C)[C@@H]1NC(=O)[C@H](CCCNC(=N)N)NC(=O)[C@H](CC(=O)O)NC(=O)[C@H](CCSC)NC(=O)[C@H](CCCNC(=N)N)NC(=O)CNC(=O)CNC(=O)[C@H](Cc2ccccc2)NC(=O)[C@@H](NC(=O)[C@H](CO)NC(=O)[C@H](CO)NC(=O)[C@H](CCCNC(=N)N)NC(=O)[C@H](CCCNC(=N)N)NC(=O)[C@H](CC(C)C)NC(=O)[C@@H](N)CO)CSSC[C@@H](C(=O)N[C@@H](CC(N)=O)C(=O)N[C@@H](CO)C(=O)N[C@@H](Cc2ccccc2)C(=O)N[C@@H](CCCNC(=N)N)C(=O)N[C@@H](Cc2ccc(O)cc2)C(=O)O)NC(=O)CNC(=O)[C@H](CC(C)C)NC(=O)CNC(=O)[C@H](CO)NC(=O)[C@H](CCC(N)=O)NC(=O)[C@H](C)NC(=O)CNC1=O` [atrial natriuretic peptide, reference compound], the “effect of the activator alone on LPS induction of the selected genes” value in assay [1] is “little or no effect”.
With `COc1ccc(C2CNC(=O)C2)cc1OC1CCCC1` (stereo not shown) [rolipram, reference compound], in assay [4] (BV2 cells, RNAseq), the “mRNA transcripts decreased in the presence of LPS + compound vs. LPS alone” value was 209 transcripts and the “transcripts elevated in the presence of LPS + compound vs. LPS alone” value was 156 transcripts. The “genes significantly affected by this compound but not the other (Compound 214 / Rolipram)” value in assay [4] (further RNASeq analysis) was determined as 251 genes. The “genes significantly affected by this compound but not the other (Compound 214 / Rolipram)” value in assay [4] (still a further experiment) is given as 1463 genes. In addition, in assay [5] (BV2 + LPS, initial results), the “Chemokine (C-C) motif Ligand 2 expression (Q-PCR)” value is given as “Down”, the “Interleukin 1 beta expression (Q-PCR)” value was “UP UP” and the “Tumor necrosis factor expression (Q-PCR)” value is “Down”. In assay [5] (setting [7]), the “LPS-induced increase in expression of Ccl2” value is given as “reducing”, the “LPS-induced increase in expression of IL1β” value was “increasing” and the “LPS-induced increase in expression of TNFα” value is listed as “reducing”. Besides, in assay [6], the “Chemokine (C-C) motif Ligand 2 expression (Q-PCR)” value is recorded as “Down”, the “Interleukin 1 beta expression (Q-PCR)” value was “UP-UP”, the “Interleukin 6 expression (Q-PCR)” value was “UP-UP” and the “Oncostatin M expression (Q-PCR)” value is on record as “Down”. Further, the “Tumor necrosis factor expression (Q-PCR)” value in assay [6] is recorded as “Down”.
